Patent US10663471B2, “Fluorescent sensors of peroxynitrite targeted to the endoplasmic reticulum” (The University of Kansas, priority 2018, dated 2020)

Tests used:
RAW 264.7 macrophages [1] = assay: subcellular localization by confocal laser scanning microscopy; type: cell-based; details: for ratio of cytosolic (ER-associated) to nuclear fluorescence: 10 μM, 4 h, living RAW 264.7 macrophages
From the text: The pro-fluorophore Compounds 1-8 can cause fluorescence in living cells upon reacting with peroxynitrite. The ability of ER-targeted sensors to detect endogenous peroxynitrite during phagocytosis was further investigated by confocal laser scanning microscopy. […] The left panels of FIGS. 7A-7B show the DIC micrographs and the right panels show the confocal laser scanning micrographs. […] When the cells were additionally treated with DNP-modified amino tentagel beads (10 micron) bound to anti-DNP IgG, cellular green fluorescence is observed and localized to the endoplasmic reticulum. In FIG. 7B, the white arrows point at phagocytosed beads. The scale bar in FIG. 7B is 25 microns. The right panel of FIG. 7A is relatively blank (white instead of black), and then fluorescence is seen in the right panel of FIG. 7B, thereby showing that there is localization to the ER by the compounds of the present invention.
After correcting for differences in brightness, this interpretation was further supported by analysis of cells treated with Compounds 1-8 by flow cytometry.
Analysis of Subcellular Localization.
RAW264.7 macrophages were scraped to passage and diluted to 300,000 cells/mL in complete medium. These cells were plated in an ibiTreat-coated 8-well μ-Slide (ibidi, 300 μL of media per well) and incubated at 37° C. overnight. The next day, the wells were washed once with complete media before treatment with fluorescent probes. Fluorescent sensors in DMSO stock solutions were diluted into complete media and added to cells. ER-Tracker Blue-White DPX (ThermoFisher Scientific) was diluted in DMSO to 100 μM followed by 1:1000 dilution with complete media. Labeled tentagel beads were added to cells at 200,000 beads/mL. Cells were incubated for 4 h at 37° C. followed by imaging by confocal microscopy (without washing). Phagocytosed beads were identified by morphology such as compression of the nucleus around the bead and adjacent fluorescence of ER membranes. […] To quantify the ratio of cytosolic to nuclear fluorescence (FIG. 8), Leica LAS X 2.0.1 software was used to define regions of interest (ROI) within the cytosol, nucleus, and cell-free regions. Mean fluorescence per pixel was calculated using Leica LAS X 2.0.1 software and plotted with SD (N=20). ROI from cell-free regions were used to subtract background fluorescence for comparison.

[2] = limit of detection of peroxynitrite by fluorescence spectroscopy; details: sensor 50 nM in PBS pH 7.4, 0.1% DMSO, 5 min, 23° C.
Protocol: (PBS, pH 7.4, 0.1% DMSO).
Determination of the Limit of Detection of Peroxynitrite by Compound 3.
The concentration of a stock solution of pure peroxynitrite was measured by absorbance spectroscopy and diluted with aq. NaOH (0.1 M) to provide additional stock solutions. […] The detection limit of Compound 3 was determined based on a reported method (Yu, F., Li, P., Wang, B., and Han, K. (2013) Reversible near-infrared fluorescent probe introducing tellurium to mimetic glutathione peroxidase for monitoring the redox cycles between peroxynitrite and glutathione in vivo, J. Am. Chem. Soc. 135, 7674-7680; Shortreed, M., Kopelman, R., Kuhn, M., and Hoyland, B. (1996) Fluorescent fiber-optic calcium sensor for physiological measurements, Anal. Chem. 68, 1414-1418). The fluorescence emission at 526 nm was normalized between the minimum intensity (0 nM peroxynitrite, Fmin) and the maximum intensity (500 nM peroxynitrite, Fmax) using the following equation: (F−Fmin)/(Fmax−Fmin). […]

[3] = photophysical properties: quantum yields relative to rhodamine 6G in n-octanol, molar extinction coefficients in DMSO; type: physicochemical
From the text: Optical spectroscopic properties of the pro-fluorophore Compound 3, as a representative probe, and the rhodol product (Compound 9), in n-octanol as a mimic of ER membranes, are shown in FIG. 2.
The fluorescence emission of Compounds 1-8 was quenched by up to 1800-fold (for Compound 3, Φ=0.0004) compared to Compound 9 (Φ=0.72). However, the brightness of these sensors, calculated as the product of their measured molar extinction coefficients and quantum yields, varied by up to 30-fold (See FIGS. 2A and 2B).

[4] = sensor 50 nM, PBS pH 7.4, 5 min, 23° C.
Protocol: Maximal fluorescence emission was measured by fluorescence spectroscopy after treatment for 5 min at 23° C. (PBS, pH 7.4, 0.1% DMSO).
A normalized DMSO stock solution of Compound 3 in DMSO (50 μM) was diluted 1:1000 with PBS (pH 7.4) to yield a 50 nM solution (0.1% DMSO) in triplicate. RNS and ROS were generated as described below and diluted into the solution in volumes that changed the overall volume by 0.5% or less. These solutions were mixed, incubated at room temperature for 5 min, and transferred to a quartz cell for analysis by fluorescence spectroscopy.
The concentration of peroxynitrite was measured by absorbance spectroscopy (ε=1670 M^−1cm^−1 at 302 nm in aq. NaOH, 0.1 M). To provide stock solutions, peroxynitrite was diluted with NaOH (aq., 0.1 M). These solutions were diluted 1:1000 into solutions of Compound 3 for analysis. […] The concentration of ClO^− was verified by absorbance spectroscopy (ε=350 M^−1cm^−1 at 209 nm) in water.
Hydroxyl radical (.OH) was generated using the Fenton reaction (Jia, X., Chen, Q., Yang, Y., Tang, Y., Wang, R., Xu, Y., Zhu, W., and Qian, X. (2016) FRET-Based Mito-Specific Fluorescent Probe for Ratiometric Detection and Imaging of Endogenous Peroxynitrite: Dyad of Cy3 and Cy5, J. Am. Chem. Soc. 138, 10778-10781). […] The concentration of H2O2 was verified by absorbance spectroscopy (ε=43.6 M^−1cm^−1 at 240 nm) in water. […]

RAW 264.7 macrophages [5] = assay: detection of peroxynitrite resulting from phagocytosis by flow cytometry; type: cell-based; details: for cellular association (cellular fluorescence per sensor brightness): FIG. 8C; for response of cellular fluorescence to SIN-1: SIN-1 50 μM, HPF 10 μM in HBSS, Fl-B 50 μM in DMEM
From the text: The ability of the pro-fluorophore Compounds 1-8 to generate cellular fluorescence was studied. The protocol included treating living RAW 264.7 macrophages with pro-fluorophore Compounds 1-8 and quantified cellular fluorescence by flow cytometry (FIGS. 6A-6B). To trigger phagocytosis and production of endogenous peroxynitrite, these cells were additionally treated with chemically-modified amino-tentagel beads. These beads were either covalently derivatized with the fluorophore Pacific Blue, to provide a less immunostimulatory control, or covalently conjugated with DNP and non-covalently bound to anti-DNP IgG, to promote bead phagocytosis as shown in FIG. 9. To provide a spectrally orthogonal marker, lysine residues of the antibody were conjugated to PB to allow labeled beads to be distinguished from cells by flow cytometry. […] Cells were treated (4 h) with sensor Compounds 1-8 (10 μM) and 10-micron amino-tentagel beads modified either with Pacific Blue-SE (Beads-PB) or 2,4-DNP-X-SE. To the DNP-modified beads was additionally added rabbit anti-DNP IgG (Beads/IgG), conjugated to Pacific Blue via lysines, to stimulate phagocytosis.
The ER-targeting pro-fluorophores were compared with non-ER-targeted sensors of peroxynitrite: hydroxyphenyl fluorescein (HPF) and fluorescein boronate (Fl-B). Since the fluorescence of HPF can be affected by serum proteins, cells were treated with this compound in Hank's balanced salt solution (HBSS). […] In FIG. 6B, the cells were treated with Compound 3 in DMEM media or HBSS and compared with treatment with hydroxyphenyl fluorescein (HPF, 10 μM in HBSS) and fluorescein boronate (Fl-B, 50 μM in DMEM). [SIN-1]=50 μM. [FeTMPyP]=50 μM.
Detection of Peroxynitrite Resulting from Phagocytosis by Flow Cytometry.
RAW264.7 macrophages were seeded on a non-treated 96-well plate (USA Scientific) in complete media (40,000 cells, 200 μL per well) 16 h prior to treatment. These cells adhere to treated plastic very strongly, and the use of non-treated plates was required for subsequent release and analysis of cells by flow cytometry. Fluorescent sensors were diluted from DMSO stock solutions into complete media (final concentration of probe=10 μM, 0.5% DMSO). Fluorescein and Compound 3 were added to Hank's Balanced Salt Solution (HBSS, Corning, pH 7.4). Labeled tentagel beads were added to this complete media or HBSS (200,000 beads/mL). The original media was carefully removed from all wells by aspiration and replaced with the treatment media containing beads and sensors (200 μL per well) in triplicate. After incubation of treated cells at 37° C. for 4 h, aqueous propidium iodide (PI, 20 μL, 30 μM, Thermo Fisher Scientific) was added to each well (final concentration of PI=3 μM). A p200 multichannel pipette was used to release the cells from the plate via sheer force. Cellular fluorescence was analyzed by flow cytometry. Viability was determined by gating based on staining of cells with compromised membranes with PI. Tentagel beads take up significant amounts of PI, making them brighter than cells at 690/50 nm. Additionally, labeling of tentagel beads with Pacific Blue makes them brighter than cells when excited at 405 nm, and additional excitation at this wavelength was used to assure that all beads were excluded from gating of live cells. Median values of fluorescence of living cells in the FITC-A channel (525/40 nm) were compared and plotted.

cells in culture = assay: cytotoxicity in culture (FIG. 5); type: cell-based; details: 10 μM, 48 hours in culture
[6] = cited from earlier work

Q: With `Cc1cc(N(C)c2cc3oc4cc(=O)c(F)cc-4c(-c4ccccc4C)c3cc2F)ccc1O` [Compound 2] as the molecule, how does the “ratio of cytosolic (ER-associated) to nuclear fluorescence” value (“ratio of cytosolic (ER-associated)” for short) (RAW 264.7 macrophages [1]) read?
A: Its value is 3.7.

Q: For `Cc1ccccc1-c1c2cc(F)c(=O)cc-2oc2cc(N(C)c3cc(C)c(O)c(C)c3)c(F)cc12` [Compound 3], which “approximate limit of detection: peroxynitrite giving a 2-fold increase in fluorescence intensity” value [2] is on record?
A: Its value is about 40 nM.

Q: And the “quantum yield Φ” value [3]?
A: Its value is 0.0004.

Q: And the “selectivity for peroxynitrite versus perchlorite, hydroxyl radical, superoxide, peroxides, nitric oxide” value [4]?
A: The value was “highly selective for peroxynitrite”.

Q: And the “conversion by SIN-1 to Compound 9, analysis by HPLC” value (HPLC)?
A: Its value is “cleanly convert”.

Q: And the “pseudo-first-order half-time t1/2 of reaction with SIN-1” value (buffer, pH 7.4)?
A: The value was 49 s.

Q: What about the “cytosolic fluorescence after addition of antibody-opsonized beads” value (RAW 264.7 macrophages [1]; 10 μM sensor, tentagel beads/IgG, confocal microscopy) of the same molecule?
A: Its value is “dramatic increase in localized cytosolic fluorescence”.

Q: And the “ratio of cytosolic (ER-associated)” value (RAW 264.7 macrophages [1])?
A: Its value is 6.7.

Q: What about the “fluorescence enhancement on co-treatment with FeTMPyP” value (RAW 264.7 macrophages [1]; confocal microscopy, data not shown) of the same molecule?
A: Its value is “substantially reduced”.

Q: What about the “accumulation in the ER by co-localization with ER tracker blue-white DPX” value (RAW 264.7 macrophages [1]; data not shown) of the same molecule?
A: Its value is “confirmed to accumulate in the ER”.

Q: What about the “decrease of cellular fluorescence on co-treatment with peroxynitrite decomposition catalyst FeTMPyP” value (RAW 264.7 macrophages [5]; IgG-bound beads, FeTMPyP 50 μM) of the same molecule?
A: Its value is “over 50%”.

Q: What about the “detection of peroxynitrite upon mild treatment of cells with antibody-opsonized tentagel beads” value (RAW 264.7 macrophages [5]; flow cytometry, FIG. 6B) of the same molecule?
A: The value was “could detect peroxynitrite”.

Q: And the “concentration in cells relative to Compound 5” value (RAW 264.7 macrophages [5]; flow cytometry, corrected for brightness, identical conditions (FIG. 8C))?
A: Its value is 4 fold.

Q: What about the “change in cellular fluorescence upon addition of IgG-coated beads” value (RAW 264.7 macrophages [5]; sensor 10 μM, 4 h, Beads/IgG, flow cytometry) of the same molecule?
A: Its value is 10 fold.

Q: And the cytotoxicity (cells in culture)?
A: Its cytotoxicity is “negligible cytotoxicity”.

Q: With `Cc1ccccc1-c1c2cc(F)c(=O)cc-2oc2cc(N(C)c3cc(C(C)(C)C)c(O)c(C(C)(C)C)c3)c(F)cc12` [Compound 4] as the molecule, how does the “cellular association (cellular fluorescence per sensor brightness)” value (RAW 264.7 macrophages [5]; flow cytometry) read?
A: Its value is “lower cellular association than Compound 2”.

Q: With `COc1cc(N(C)c2cc3oc4cc(=O)c(F)cc-4c(-c4ccccc4C)c3cc2F)ccc1O` [Compound 5] as the molecule, how does the “ratio of cytosolic (ER-associated)” value (RAW 264.7 macrophages [1]) read?
A: Its value is 2.6.

Q: Which “cellular association (cellular fluorescence per sensor brightness)” value (RAW 264.7 macrophages [5]; flow cytometry) does the source give for `Cc1ccccc1-c1c2cc(F)c(=O)cc-2oc2cc(N(C)c3cc(Cl)c(O)c(Cl)c3)c(F)cc12` [Compound 8] here?
A: Its value is “lowest cellular association”.

Q: With `CNc1cc2oc3cc(=O)c(F)cc-3c(-c3ccccc3C)c2cc1F` [Compound 9] as the molecule, how does the “quantum yield Φ” value [3] read?
A: The value was 0.72.

Q: What about the “accumulation in the ER by co-localization with ER tracker blue-white DPX” value (RAW 264.7 macrophages [1]; data not shown) of the same molecule?
A: The value was “confirmed to accumulate in the ER”.

Q: What about the “time to extensive loss of cellular fluorescence after washing cells once with complete media (efflux)” value (RAW 264.7 macrophages [1]; data not shown) of the same molecule?
A: The value was 10 to 20 min.

Q: For `O=C1OC2(c3ccc(O)cc3Oc3cc(Oc4ccc(O)cc4)ccc32)c2ccccc21` (stereo not drawn) [HPF, hydroxyphenyl fluorescein, reference compound], which “response of cellular fluorescence to SIN-1” value (RAW 264.7 macrophages [5]) is on record?
A: The value was “responded to SIN-1 and could increase cellular fluorescence”.

Q: With `O=NOO` [peroxynitrous acid] as the molecule, how does the pKa [6] read?
A: The pKa was 6.84.

Q: Which “response of cellular fluorescence to SIN-1” value (RAW 264.7 macrophages [5]) does the source give for “fluorescein boronate [Fl-B, reference compound]” here?
A: Its value is “responded to SIN-1 and could increase cellular fluorescence”.
